From patent US8093275B2, “Oxazolone and pyrrolidinone-substituted pryidine amides as P2X3 and P2X2/3 antagonists” (Roche Palo Alto LLC, priority 2009, dated 2012)

Assays:
rat P2X3 receptor = target: T1, rat P2X3 receptor (Rattus norvegicus, UniProt P49654); test: P2X3 FLIPR (Fluorometric Imaging Plate Reader) assay; format: cell-based; details: CHO-K1 cells transfected with rat P2X3; agonist α,β-meATP 1 μM; FLIPR calcium fluorescence; read-out: pKi P2X3 (converted)
T1 construct: expressed in transfected cells; host or cells: CHO-K1
T1 sequence (P49654 1-397): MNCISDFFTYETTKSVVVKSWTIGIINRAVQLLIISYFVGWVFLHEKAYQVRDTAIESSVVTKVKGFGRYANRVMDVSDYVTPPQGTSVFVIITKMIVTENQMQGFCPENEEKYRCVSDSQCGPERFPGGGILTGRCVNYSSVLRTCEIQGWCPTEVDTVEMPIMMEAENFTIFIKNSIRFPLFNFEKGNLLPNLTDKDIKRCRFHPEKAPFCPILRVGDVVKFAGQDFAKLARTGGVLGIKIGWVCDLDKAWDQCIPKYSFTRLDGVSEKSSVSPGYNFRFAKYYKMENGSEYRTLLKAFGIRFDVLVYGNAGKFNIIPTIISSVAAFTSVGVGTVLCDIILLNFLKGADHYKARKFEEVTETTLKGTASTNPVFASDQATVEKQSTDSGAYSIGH
Procedure: (§1) CHO-K1 cells were transfected with cloned rat P2X3 or human P2X2/3 receptor subunits and passaged in flasks. 18-24 hours before the FLIPR experiment, cells were released from their flasks, centrifuged, and resuspended in nutrient medium at 2.5×10^5 cells/ml. The cells were aliquoted into black-walled 96-well plates at a density of 50,000 cells/well and incubated overnight in 5% CO2 at 37° C. On the day of the experiment, cells were washed in FLIPR buffer (calcium- and magnesium-free Hank's balanced salt solution, 10 mM HEPES, 2 mM CaCl2, 2.5 mM probenecid; FB). Each well received 100 μl FB and 100 μl of the fluorescent dye Fluo-3 AM [2 μM final conc.]. After a 1 hour dye loading incubation at 37° C., the cells were washed 4 times with FB, and a final 75 μl/well FB was left in each well.
(§2) Test compounds (dissolved in DMSO at 10 mM and serially diluted with FB) or vehicle were added to each well (25 μl of a 4× solution) and allowed to equilibrate for 20 minutes at room temperature. The plates were then placed in the FLIPR and a baseline fluorescence measurement (excitation at 488 nm and emission at 510-570 nm) was obtained for 10 seconds before a 100 μl/well agonist or vehicle addition. The agonist was a 2× solution of α,β-meATP producing a final concentration of 1 μM (P2X3) or 5 μM (P2X2/3). Fluorescence was measured for an additional 2 minutes at 1 second intervals after agonist addition. A final addition of ionomycin (5 μM, final concentration) was made to each well of the FLIPR test plate to establish cell viability and maximum fluorescence of dye-bound cytosolic calcium. Peak fluorescence in response to the addition of α,β-meATP (in the absence and presence of test compounds) was measured and inhibition curves generated using nonlinear regression. PPADS, a standard P2X antagonist, was used as a positive control.

human P2X2/3 receptor = target: T2, human P2X2/3 receptor (Homo sapiens, UniProt P56373+Q9UBL9); test: P2X2/3 FLIPR (Fluorometric Imaging Plate Reader) assay; format: cell-based; details: CHO-K1 cells transfected with human P2X2/3; agonist α,β-meATP 5 μM; FLIPR calcium fluorescence; read-out: pKi P2X2/3 (converted)
T2 construct: expressed in transfected cells; host or cells: CHO-K1
T2 sequence (Q9UBL9 1-471): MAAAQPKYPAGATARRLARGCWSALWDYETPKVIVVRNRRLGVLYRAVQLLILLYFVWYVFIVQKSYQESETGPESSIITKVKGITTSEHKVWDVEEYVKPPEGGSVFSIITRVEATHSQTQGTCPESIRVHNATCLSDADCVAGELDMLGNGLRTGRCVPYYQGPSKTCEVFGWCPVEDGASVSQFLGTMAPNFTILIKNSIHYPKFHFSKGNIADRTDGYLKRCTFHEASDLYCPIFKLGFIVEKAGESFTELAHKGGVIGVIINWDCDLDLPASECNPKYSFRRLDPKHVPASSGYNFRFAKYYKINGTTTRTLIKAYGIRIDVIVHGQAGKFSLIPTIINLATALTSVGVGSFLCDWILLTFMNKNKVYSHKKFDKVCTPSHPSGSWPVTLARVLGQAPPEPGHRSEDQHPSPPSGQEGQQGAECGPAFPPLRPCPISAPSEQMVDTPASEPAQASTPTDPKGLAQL
T2 sequence (P56373 1-397): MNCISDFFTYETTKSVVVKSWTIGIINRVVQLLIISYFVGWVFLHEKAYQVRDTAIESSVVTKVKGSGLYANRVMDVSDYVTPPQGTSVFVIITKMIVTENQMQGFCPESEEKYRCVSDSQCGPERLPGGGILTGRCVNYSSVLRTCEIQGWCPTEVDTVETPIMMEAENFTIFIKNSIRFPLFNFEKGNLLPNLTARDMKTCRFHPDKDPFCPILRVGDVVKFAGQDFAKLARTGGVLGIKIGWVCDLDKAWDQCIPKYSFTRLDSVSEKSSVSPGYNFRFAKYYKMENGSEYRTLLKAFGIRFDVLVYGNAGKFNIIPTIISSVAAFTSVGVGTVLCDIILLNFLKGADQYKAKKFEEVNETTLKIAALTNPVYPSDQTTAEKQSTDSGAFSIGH
Procedure: as §1, §2

Structure (SMILES)	Ki (rat P2X3 receptor) [nM]	Ki (human P2X2/3 receptor) [nM]
Cc1ccc(-c2cc(C(=O)N[C@@H](C)CO)cc(N3C(=O)OC[C@H]3C(C)C)c2)c(F)c1 [Compound 46, 2′-Fluoro-5-((R)-4-isopropyl-2-oxo-oxazolidin-3-yl)-4′-methyl-biphenyl-3-carboxylic acid ((S)-2-hydroxy-1-methyl-ethyl)-amide]	2.45	93.3
Cc1ccc(-c2cc(C(=O)NC(C)c3cnccn3)cc(N3C(=O)OC[C@H]3C(C)C)c2)c(F)c1 (stereo partly drawn) [Compound 47, 2′-Fluoro-5-((R)-4-isopropyl-2-oxo-oxazolidin-3-yl)-4′-methyl-biphenyl-3-carboxylic acid (1-pyrazin-2-yl-ethyl)-amide]	12.6	44.7
Cc1ccc(-c2cc(C(=O)NCc3cnc(C)cn3)cc(N3C(=O)OC[C@H]3C(C)C)c2)c(F)c1 [Compound 48, 2′-Fluoro-5-((R)-4-isopropyl-2-oxo-oxazolidin-3-yl)-4′-methyl-biphenyl-3-carboxylic acid (5-methyl-pyrazin-2-ylmethyl)-amide]	13.2	38
Cc1ccc(-c2cc(C(=O)NC3CC3)cc(N3C(=O)OC[C@H]3C(C)C)c2)c(F)c1 [Compound 49, 2′-Fluoro-5-((R)-4-isopropyl-2-oxo-oxazolidin-3-yl)-4′-methyl-biphenyl-3-carboxylic acid cyclopropylamide]	8.91	123
Cc1ccc(-c2cc(C(=O)NC(C)c3cnccn3)cc(-n3c(=O)oc4ccccc43)c2)cc1 (stereo not shown) [Compound 50, 4′-Methyl-5-(2-oxo-benzooxazol-3-yl)-biphenyl-3-carboxylic acid (1-pyrazin-2-yl-ethyl)-amide]	12.3	26.3
Cc1ccc(-c2cc(C(=O)NCc3cnc(C)cn3)cc(-n3c(=O)oc4ccccc43)c2)cc1 [Compound 51, 4′-Methyl-5-(2-oxo-benzooxazol-3-yl)-biphenyl-3-carboxylic acid (5-methyl-pyrazin-2-ylmethyl)-amide]	11	31.6
Cc1ccc(-c2cc(C(=O)NCc3cnc(C)cn3)cc(N3C(=O)Cc4ccccc43)c2)cc1 [Compound 53, 4′-Methyl-5-(2-oxo-2,3-dihydro-indol-1-yl)-biphenyl-3-carboxylic acid (5-methyl-pyrazin-2-ylmethyl)-amide]	7.24	123
Cc1ccc(-c2cc(C(=O)NC(C)c3cnccn3)cc(N3C(=O)Cc4ccccc43)c2)cc1 (stereo not shown) [Compound 54, 4′-Methyl-5-(2-oxo-2,3-dihydro-indol-1-yl)-biphenyl-3-carboxylic acid (1-pyrazin-2-yl-ethyl)-amide]	20	112
